{"source": "paper PMC12650660", "about": "“Novel Synthetic Strategies Towards Analogues of Cadaside and Malacidin Antibiotic Peptides” (Biomolecules, 2025)"}
{"experiment": "not given", "set-up": "key: “+” indicates binding confirmed; “-” indicates no binding; “~” indicates potential binding with absence of precursor band", "settings": "Table S2; ref SI [7], [9], [10]; cited from earlier work", "excerpt": "page 11: Table S2: Summary of the ability of CDAs to bind cell wall synthesis precursors, as well as tendency to induce membrane depolarisation. “+” indicates binding, “-” indicates no binding, “n.d.” indicates binding has not been determined. * indicates binding occurs in the presence of phosphatidylglycerol. Peptide C -P C-PP Lipid I Lipid II Membrane 55 55 Depolarisation Daptomycin [1]–[4] + * + * n.d. + * + A54145 [5] n.d. n.d. n.d. n.d. + Tsushimycin [4] + n.d. n.d. n.d. n.d. Laspartomycin [6] + n.d. n.d. n.d. - Friulimicin [7] + - - - - Taromycin n.d. n.d. n.d. n.d. n.d. Amphomycin [9], ..."}
{"compound": "Amphomycin", "Lipid I binding (reported)": "-"}
{"compound": "Friulimicin", "Lipid I binding (reported)": "-"}
{"experiment": "tail-to-side-chain lactamisation of side-chain-protected peptide (Dap2 beta-NH2 + C-terminal Pro), HATU/DIPEA, microwave", "settings": "the molecule shown is the open-chain precursor; 28-membered ring; DCM; 6.0 mM; 70.0 °C; 1.0 h", "units": {"ring closure, overall yield": "%"}}
{"compound": "CCCCCCCCCC(=O)N[C@@H](CC(=O)OC(C)(C)C)C(=O)N[C@@H](CN)C(=O)N[C@@H](C(=O)N[C@@H](CCCCNC(=O)OC(C)(C)C)C(=O)N[C@@H](CC(=O)OC(C)(C)C)C(=O)N[C@@H](CC(=O)OC(C)(C)C)C(=O)N(CC(=O)N[C@H](CC(=O)OC(C)(C)C)C(=O)N[C@H](C(=O)N1CCC[C@H]1C(=O)O)C(C)C)Cc1ccc(OC)cc1OC)C(C)C", "ring closure, overall yield": 1.3}
{"experiment": "head-to-tail type lactamisation of side-chain-protected branched depsipeptide (Gly10 N-terminus of ester branch + C-terminal Pro9), HATU/DIPEA (pH ~10), microwave", "settings": "the molecule shown is the open-chain precursor; 28-membered ring; DCM; 6.0 mM; 70.0 °C; 1.0 h", "units": {"ring closure, overall yield": "%"}}
{"compound": "CCCCCCCCCC(=O)NC[C@@H](C)C(=O)NCC(=O)N[C@H](CCC(=O)OC(C)(C)C)C(=O)N[C@@H](Cc1ccc(OC(C)(C)C)cc1)C(=O)N[C@H](C(=O)N[C@@H](C(=O)N[C@@H](CC(=O)OC(C)(C)C)C(=O)N[C@@H](CC(=O)OC(C)(C)C)C(=O)N1CCC[C@H]1C(=O)O)[C@H](C)CC)[C@@H](C)OC(=O)CN(C)C(=O)[C@H](CC(=O)OC(C)(C)C)NC(=O)[C@@H](CC(=O)OC(C)(C)C)NC(=O)CN", "ring closure, overall yield": 0.3}
{"compound": "CCCCCCCCCC(=O)NC[C@@H](C)C(=O)NCC(=O)N[C@H](CCC(=O)OC(C)(C)C)C(=O)N[C@@H](Cc1ccc(OC(C)(C)C)cc1)C(=O)N[C@H](C(=O)N[C@@H](C(=O)N[C@@H](CC(=O)OC(C)(C)C)C(=O)N[C@@H](CC(=O)OC(C)(C)C)C(=O)N1CCC[C@H]1C(=O)O)[C@H](C)CC)[C@@H](C)OC(=O)CN(C)C(=O)[C@H](CC(=O)OC(C)(C)C)NC(=O)[C@@H](CCC(=O)OC(C)(C)C)NC(=O)CN", "ring closure, overall yield": 0.4}
{"compound": "CCCCCCCCCC(=O)NC[C@@H](C)C(=O)NCC(=O)N[C@H](CCC(=O)OC(C)(C)C)C(=O)N[C@@H](Cc1ccc(OC(C)(C)C)cc1)C(=O)N[C@H](C(=O)N[C@@H](C(=O)N[C@@H](CC(=O)OC(C)(C)C)C(=O)N[C@@H](CC(=O)OC(C)(C)C)C(=O)N1CCC[C@H]1C(=O)O)[C@H](C)CC)[C@@H](C)OC(=O)CN(C)C(=O)[C@H](CC(=O)OC(C)(C)C)NC(=O)[C@H](CC(=O)OC(C)(C)C)NC(=O)CN", "ring closure, overall yield": 0.4}
{"compound": "CCCCCCCCCC(=O)NC[C@@H](C)C(=O)NCC(=O)N[C@H](CCC(=O)OC(C)(C)C)C(=O)N[C@@H](Cc1ccc(OC(C)(C)C)cc1)C(=O)N[C@H](C(=O)N[C@@H](C(=O)N[C@@H](CC(=O)OC(C)(C)C)C(=O)N[C@@H](CC(=O)OC(C)(C)C)C(=O)N1CCC[C@H]1C(=O)O)[C@H](C)CC)[C@@H](C)OC(=O)CN(C)C(=O)[C@H](CC(=O)OC(C)(C)C)NC(=O)[C@H](CCC(=O)OC(C)(C)C)NC(=O)CN", "ring closure, overall yield": 0.2}
{"compound": "CCCCCCCCCC(=O)NC[C@@H](C)C(=O)NCC(=O)N[C@H](CCC(=O)OC(C)(C)C)C(=O)N[C@@H](Cc1ccc(OC(C)(C)C)cc1)C(=O)N[C@H](C(=O)N[C@@H](C(=O)N[C@@H](CC(=O)OC(C)(C)C)C(=O)N[C@@H](CC(=O)OC(C)(C)C)C(=O)N1CCC[C@H]1C(=O)O)[C@H](C)CC)[C@@H](C)OC(=O)CN(C)C(=O)[C@H](CCC(=O)OC(C)(C)C)NC(=O)[C@@H](CC(=O)OC(C)(C)C)NC(=O)CN", "ring closure, overall yield": 0.3}
{"compound": "CCCCCCCCCC(=O)NC[C@@H](C)C(=O)NCC(=O)N[C@H](CCC(=O)OC(C)(C)C)C(=O)N[C@@H](Cc1ccc(OC(C)(C)C)cc1)C(=O)N[C@H](C(=O)N[C@@H](C(=O)N[C@@H](CC(=O)OC(C)(C)C)C(=O)N[C@@H](CC(=O)OC(C)(C)C)C(=O)N1CCC[C@H]1C(=O)O)[C@H](C)CC)[C@@H](C)OC(=O)CN(C)C(=O)[C@H](CCC(=O)OC(C)(C)C)NC(=O)[C@@H](CCC(=O)OC(C)(C)C)NC(=O)CN", "ring closure, overall yield": 0.5}
{"compound": "CCCCCCCCCC(=O)NC[C@@H](C)C(=O)NCC(=O)N[C@H](CCC(=O)OC(C)(C)C)C(=O)N[C@@H](Cc1ccc(OC(C)(C)C)cc1)C(=O)N[C@H](C(=O)N[C@@H](C(=O)N[C@@H](CC(=O)OC(C)(C)C)C(=O)N[C@@H](CC(=O)OC(C)(C)C)C(=O)N1CCC[C@H]1C(=O)O)[C@H](C)CC)[C@@H](C)OC(=O)CN(C)C(=O)[C@H](CCC(=O)OC(C)(C)C)NC(=O)[C@H](CC(=O)OC(C)(C)C)NC(=O)CN", "ring closure, overall yield": 0.2}
{"compound": "CCCCCCCCCC(=O)NC[C@@H](C)C(=O)NCC(=O)N[C@H](CCC(=O)OC(C)(C)C)C(=O)N[C@@H](Cc1ccc(OC(C)(C)C)cc1)C(=O)N[C@H](C(=O)N[C@@H](C(=O)N[C@@H](CC(=O)OC(C)(C)C)C(=O)N[C@@H](CC(=O)OC(C)(C)C)C(=O)N1CCC[C@H]1C(=O)O)[C@H](C)CC)[C@@H](C)OC(=O)CN(C)C(=O)[C@H](CCC(=O)OC(C)(C)C)NC(=O)[C@H](CCC(=O)OC(C)(C)C)NC(=O)CN", "ring closure, overall yield": 1}
{"experiment": "head-to-tail type lactamisation of side-chain-protected branched depsipeptide (Gly10 N-terminus of ester branch + C-terminal Pro9), HATU/DIPEA (pH ~10), microwave", "settings": "the molecule shown is the open-chain precursor; 31-membered ring; DCM; 6.0 mM; 70.0 °C; 1.0 h", "units": {"ring closure, overall yield": "%"}}
{"compound": "CCCCCCCCCC(=O)NC[C@@H](C)C(=O)NCC(=O)N[C@H](CCC(=O)OC(C)(C)C)C(=O)N[C@@H](Cc1ccc(OC(C)(C)C)cc1)C(=O)N[C@H](C(=O)N[C@@H](C(=O)N[C@@H](CC(=O)OC(C)(C)C)C(=O)N[C@@H](CC(=O)OC(C)(C)C)C(=O)N1CCC[C@H]1C(=O)O)[C@H](C)CC)[C@@H](C)OC(=O)CN(C)C(=O)[C@H](CC(=O)OC(C)(C)C)NC(=O)CNC(=O)[C@H](CC(=O)OC(C)(C)C)NC(=O)CN", "ring closure, overall yield": 0.3}
{"compound": "CCCCCCCCCC(=O)NC[C@@H](C)C(=O)NCC(=O)N[C@H](CCC(=O)OC(C)(C)C)C(=O)N[C@@H](Cc1ccc(OC(C)(C)C)cc1)C(=O)N[C@H](C(=O)N[C@@H](C(=O)N[C@@H](CC(=O)OC(C)(C)C)C(=O)N[C@@H](CC(=O)OC(C)(C)C)C(=O)N1CCC[C@H]1C(=O)O)[C@H](C)CC)[C@@H](C)OC(=O)CN(C)C(=O)[C@H](CCC(=O)OC(C)(C)C)NC(=O)CNC(=O)[C@@H](CCC(=O)OC(C)(C)C)NC(=O)CN", "ring closure, overall yield": 0.3}
